From ChEMBL document CHEMBL1158462, “Recent advances in the development of polyamine analogues as antitumor agents” (J Med Chem, 2009) come the findings set out here.

One assay deals with PC-3. As to the kind of experiment: cells. Conditions: Homo sapiens.
In a further assay the test system is DuPro. Kind of assay: Antitumor activity against human DuPro cells. Format: functional, cell-based.
The test system of the next assay is NCI-H157. As to the kind of experiment: Antitumor activity against human NCI-H157 cells by MTT assay. Format: functional, cell-based. On the technique in general: Tetrazolium dyes change colour on reduction, which living cells bring about.
Another assay has as its system MCF7. As to the kind of experiment: cells. The class given is functional, cell-based. The following applies: Homo sapiens.
Another assay has as its system DU-145. Kind of assay: Antitumor activity against human DU145 cells. The class given is functional, cell-based.
A further assay concerns A549. Kind of assay: Antitumor activity against human A549 cells. The class given is functional, cell-based.
Assay [1] is described as follows: Antitumor activity against human U251MG cells. Format: functional, cell-based. The following applies: U-251.
A further assay concerns HT-29. Kind of assay: Antitumor activity against human HT-29 cells. Format: functional, cell-based.
A further assay in a line: cells. Conditions: Mus musculus, ML1.
The nature of assay [2]: Antitumor activity against human H82 cells. Format: functional, cell-based. The following applies: NCI-H82.
In another assay the test system is NCI-H69. As to the kind of experiment: Antitumor activity against human H69 cells. Format: functional, cell-based.
The test system of another assay is Malme-3M. As to the kind of experiment: Antitumor activity against human MALME-3M cells. Format: functional, cell-based.
The subject of another assay is HeLa. Kind of assay: Antiproliferative activity against human HeLa cells. Format: functional, cell-based.
The subject of a further assay is MCF-10A. Kind of assay: cells. The class given is functional, cell-based. The following applies: Homo sapiens.
Another assay has as its system L1210. Kind of assay: Antitumor activity against mouse L1210 cells. The class given is functional, cell-based.
For assay [3], the target named is T1, Histone deacetylase (Homo sapiens) (UniProt Q13547+O15379+Q9UBN7+Q92769+Q9UQL6+Q8WUI4+Q9BY41+Q96DB2+P56524+Q9UKV0+Q969S8). Conditions: HeLa, at 5 µM.
Description: Inhibition of HDAC from human HeLa cells assessed as of histone H3 acetylation at 5 uM
For assay [4], the target named is T1, Histone deacetylase (Homo sapiens). As to the kind of experiment: Inhibition of HDAC from human HeLa cells assessed as induction of histone H3 acetylation at 1 uM. Format: cell-based.

Description for MCF-10A: Antitumor activity against human MCF10A cells
Description for MCF7: Antitumor activity against human MCF7 cells
Description for PC-3: Antitumor activity against human PC3 cells

The IC50 is the concentration at which inhibition is half-maximal. In the case of `CCCCCCCCCCCCCC1CC(=O)NCCCNCCCCNCCCN1` (stereo not drawn) [BUDMUNCHIAMINE L4], the IC50 in the assay with PC-3 and with DuPro was 600 nM in each case.

In the case of `CCNCCCNCCCCNCCCNCC(CC)CC`, in the assay with NCI-H157, inhibition was half-maximal at 3100 nM (IC50).

Consider `CCNCCCNCc1ccccc1CNCCCNCC`, for which the IC50 was > 30 µM in the assay with MCF7; > 30 µM with DU-145; > 30000 nM in the assay with A549; > 30 µM in assay [1]; > 30 µM in the assay with HT-29; > 30000 nM in the assay on PC-3.

Take `Nc1ccccc1NC(=O)c1ccc(CNC(=O)OCc2cccnc2)cc1` [ENTINOSTAT]: in the assay “cells”, the half-maximal inhibitory concentration (IC50) was determined as 0.75 µM.

Turning to `CCNCCCNCC1CC1CNCCCNCC` (stereo not drawn), the IC50 in the assay on MCF7 is ≥ 0.3 µM; in the assay with DU-145 it was ≥ 0.3 µM; with A549 it was ≥ 300 nM; in [1], ≥ 0.3 µM; in the assay on HT-29, ≥ 0.3 µM; in the assay with PC-3 it was ≥ 300 nM.

As for `CCNCCCNCCCCNCCCNCCC(C)(C)C`, the IC50 came to 900 nM with A549, 1800 nM with NCI-H157, 900 nM in [2] and 900 nM in the assay on NCI-H69.

With `C(CCCNCCCNCC1CCCCCC1)CCCNCCCNCC1CCCCCC1`, the 50% inhibitory concentration (IC50) with NCI-H157 is 2900 nM. This lies in the single-digit micromolar range.

As for `CC(C)NCCCNCCCCNCCCNC(C)C`, in the assay with Malme-3M, the IC50 was determined as 3000 nM. In other words, the single-digit micromolar range.

For the compound `c1ccc(-c2ccccc2CNCCCNCCCNCCCNCc2ccccc2-c2ccccc2)cc1`, in the assay on NCI-H157, it took 4200 nM to reach half-maximal inhibition (IC50). This lies in the single-digit micromolar range.

`CC(C)(C)c1ccc(CNCCCNCCCNCCCNCc2ccc(C(C)(C)C)cc2)cc1` displayed an IC50 in the assay on NCI-H157 of 4200 nM.

In the case of `CCSCCNCCCNCCCNCCCNCCSCC`, in the assay with NCI-H157, half-maximal inhibition (IC50) required 1400 nM.

Take `NCCCNCCCCCCCCNCCCN`: 5 µM corresponded to half-maximal inhibition in the assay with HeLa (IC50).

Turning to `Nc1ccccc1NC(=O)c1ccc(CNC(=O)CCCCCCC(=O)NCCCNCCCCNCCC(c2ccccc2)c2ccccc2)cc1`, the half-inhibitory concentration (IC50) in the assay on MCF7 and in the assay on MCF-10A was > 30 µM throughout.

The compound `COc1cc(C(C)(C)C)cc(C(C)(C)C)c1CNCCCNCCCNCCCNCc1c(OC)cc(C(C)(C)C)cc1C(C)(C)C` yielded an IC50 with NCI-H157 of 4000 nM.

In the assay with NCI-H157, `c1ccc(C(CCNCCCCNCCCNCCC(c2ccccc2)c2ccccc2)c2ccccc2)cc1` showed an IC50 of 4600 nM.

As to `CCNCCCNCC#CCNCCCNCC`, the IC50 is > 30 µM in the assay on MCF7; > 30 µM in the assay with DU-145; > 30000 nM in the assay with A549; > 30 µM in assay [1]; > 30 µM in the assay on HT-29; > 30000 nM in the assay with PC-3.

For `CCNCCCNCCCCNCCCNCC` [BIS(ETHYL)SPERMINE], in the assay on L1210, the IC50 amounted to 500 nM.

With `CCNCCCNCCCCNCCCNCCC(C)C`, in the assay with NCI-H157, the IC50 turned out to be 1700 nM.

In the case of `CCNCCCNCCCNCCCNC[C@@H](C)CC`, the IC50 (in the assay on NCI-H157; in assay [2]) was 1300 nM throughout.

As a reminder, the inhibition is the change of the read-out against control, counted positive when it falls. Regarding `Nc1ccccc1NC(=O)c1ccc(CNC(=O)CCCCCCCCC(=O)NCCCNCCCCNCCC(c2ccccc2)c2ccccc2)cc1`, the IC50 with MCF7 and with MCF-10A was > 30 µM each time. In assay [3], this compound displayed an inhibition of 42.9%.

For the compound `Cc1cccc(NC(=O)c2ccc(CNC(=O)CCCCCCC(=O)NCCCNCCCCNCCC(c3ccccc3)c3ccccc3)cc2)c1`, the 50% inhibitory concentration (IC50) with MCF7 and in the assay on MCF-10A was > 30 µM in each case. In addition, the inhibition in assay [3] stood at 42.6%.

`O=C(CCCCCCC(=O)NCCCNCCCCNCCC(c1ccccc1)c1ccccc1)NO`: in [4], the inhibition stood at 75%. For the same compound, half-maximal inhibition in the assay “cells” (IC50) was put at 10 µM.

The compound `CCNCCCCNCCCCNCCCCNCC` [DIETHYLHOMOSPERMINE] displayed a 50% inhibitory concentration (IC50) in the assay on Malme-3M of 1000 nM.

In the case of `Nc1ccccc1NC(=O)c1ccc(CNC(=O)CCCCC(=O)NCCCNCCCCNCc2ccccc2-c2ccccc2)cc1`, the IC50 with MCF7 and in the assay on MCF-10A was > 30 µM each time. Further, the inhibition in [3] is 60.1%.

With `Nc1ccccc1NC(=O)c1ccc(CNC(=O)CCCCCCCC(=O)NCCCNCCCCNCCC(c2ccccc2)c2ccccc2)cc1`, the half-maximal inhibitory concentration (IC50) in the assay on MCF7 and in the assay on MCF-10A was > 30 µM throughout. Further, the inhibition in [3] was determined as 47%.

Consider `CCNCCCNCCCNCCCNC(C)C`, for which the half-maximal inhibitory concentration (IC50) in the assay with NCI-H157 was 1400 nM.

For `c1ccc(-c2ccccc2CNCCCCNCCCNCc2ccccc2-c2ccccc2)cc1`, 4000 nM corresponded to half-maximal inhibition with NCI-H157 (IC50).

Regarding `c1ccc(-c2ccccc2CNCCCNCCCCNCCCNCc2ccccc2-c2ccccc2)cc1`, in the assay on NCI-H157, the IC50 was 4100 nM.

Turning to `CC(=O)C(=O)NCCCCCC(=O)NCCCNCCCCNCCC(c1ccccc1)c1ccccc1`, the IC50 in the assay with MCF7 and with MCF-10A was > 30 µM in each case. Moreover, the inhibition in assay [3] was found to be 30.2%.

As for `CCNCCCNCCCNCCCNCCC(C)C`, the IC50 in the assay on NCI-H157 was found to be 600 nM.

On to `CCNCCCNCCCNCCCNCCSc1ccccc1`, for which, in the assay with NCI-H157, it took 300 nM to reach half-maximal inhibition (IC50).
